Data: patent US20220306695A1, “COMPSTATIN ANALOGUES AND THEIR MEDICAL USES” (priority 2019, published 2022)
Starred links: 1 amine or outer side, 2 acyl side, 3 side chain; linkers in the order of their positions; H or OH if unused. Positions of bridges follow the written chain, without caps; N, C: chain ends. Non-standard residues stand in square brackets, D forms with d. Residues, ends and D or L forms follow the SMILES beside them. Groups on a side chain read outwards from the residue. *: point of attachment. Trp(1-Me) = Cn1cc(C[C@H](N)C(=O)O)c2ccccc21; Abu(4-yl) = O=C([C@H](CC[*:3])N[*:1])[*:2]; C18 diacid = O=C(O)CCCCCCCCCCCCCCCCC(=O)*; C16 diacid = O=C(O)CCCCCCCCCCCCCCC(=O)*; γGlu = O=C(O)[C@H](CCC(=O)[*:2])N[*:1]; AEEA = NCCOCCOCC(=O)O; Sar = CNCC(=O)O

Key:
[1] = Solubility test at 10 mg/mL (visual inspection and light scattering); assay type: physicochemical; conditions: for Solubility, Condition 1 Acetate pH 4: 10 mg/mL compound in 100 mM acetate pH 4; for Solubility, Condition 2 Acetate pH 5: 10 mg/mL compound in 100 mM acetate pH 5; for Solubility, Condition 3 Phosphate pH 6: 10 mg/mL compound in 100 mM phosphate pH 6; for Solubility, Condition 4 Phosphate pH 7: 10 mg/mL compound in 100 mM phosphate pH 7; for Solubility, Condition 5 Phosphate pH 7.5: 10 mg/mL compound in 100 mM phosphate pH 7.5
[2] = system: classical complement pathway; experiment: In vitro haemolysis assay (inhibition of classical complement pathway); assay type: cell-based, human; conditions: Table 3; human serum, sensitized sheep red blood cells; read-out: IC50[nM], in vitro analysis of inhibition of hemolysis
Outline: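 Serially diluted compound (9 points) was preincubated 15 min at room temperature with diluted human serum, titrated per batch to give 70-90% maximal haemolysis, in Tris/casein buffer pH 7.4 with Mg2+/Ca2+. Antibody-sensitized sheep erythrocytes were then added for 30 min at 37° C, and the reaction was stopped with EDTA. Haemolysis was read at A405, with IC50 from 4PL fit.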

in vivo = experiment: in vivo; set-up: species or system Cynomolgus monkeys (Macaca fascicularis); conditions: male, cynomolgus monkey, sc, 1840 nmol/kg, t½
Description: Healthy male Cynomolgus monkeys (Macaca fascicularis) received single subcutaneous administrations of each test substance. Compounds were formulated in 20 mM phosphate adjusted with NaOH to pH 7.5 and mannitol for isotonicity and dosed at 1840 nmol/kg. Blood was collected from a femoral vein from each animal at the following times: Pre-dose, 1, 2, 4, 8, 24, 48, 72, 96 and 120 h (10 sampling times). Blood was collected into serum separation tubes and allowed to clot at room temperature. The tubes were centrifuged and resulting serum was aliquoted and snap-frozen over dry-ice and stored at nominally −80° C. until analysis. All NHP studies were performed in accordance with animal welfare laws and regulations, including approval of the study by a local ethical review process.
In order to assess pharmacokinetic half-life (t %/), serum samples isolated from non-human primates at specific time points after dosing were analysed for total drug compound after sample preparation by solid phase extraction (SPE) and liquid chromatography mass spectrometry (LC-MS/MS) using analogue internal standard. Single measurement of serum concentrations were used for calculation of the pharmacokinetic parameters using the non-compartmental approach in Phoenix WinNonlin 6.3. Plasma terminal elimination half-life (ty) was determined as In(2)/λz where λz is the magnitude of the slope of the log linear regression of the log concentration versus time profile during the terminal phase.

Structure (SMILES)	Solubility, Condition 1 Acetate pH 4 [1]	Solubility, Condition 2 Acetate pH 5 [1]	Solubility, Condition 3 Phosphate pH 6 [1]	Solubility, Condition 4 Phosphate pH 7 [1]	Solubility, Condition 5 Phosphate pH 7.5 [1]	IC50 [2] [nM]	half-life (in vivo) [h]
CC[C@H](C)[C@@H]1NC(=O)[C@@H](NC(=O)[C@H](Cc2ccc(O)cc2)NC(=O)[C@H](C)NC(=O)[C@H](CO)NC(=O)CNC(=O)[C@H](CCC(=O)O)NC(C)=O)CSSC[C@@H](C(=O)N(C)CC(=O)N[C@@H](CCC(=O)O)C(=O)NCC(=O)N[C@@H](CCCCNC(=O)COCCOCCNC(=O)COCCOCCNC(=O)CC[C@H](NC(=O)CCCCCCCCCCCCCCC(=O)O)C(=O)O)C(N)=O)NC(=O)[C@H](CCCNC(=N)N)NC(=O)[C@H](Cc2c[nH]cn2)NC(=O)[C@H](CCC(=O)O)NC(=O)CNC(=O)[C@H](Cc2c[nH]c3ccccc23)NC(=O)[C@H](CC(=O)O)NC(=O)[C@H](CCC(N)=O)NC(=O)[C@H](Cc2cn(C)c3ccccc23)NC1=O [Compound 104] (Ac-EGSAYCI[Trp(1-Me)]QDWGEHRC[Sar]EGK([AEEA-AEEA-γGlu-C16 diacid])-NH2; disulfide 6-16)	− (denotes lack of solubility at the given condition, as UV absorbance at 340 nm exceeds 0.1 AU and/or it is visibly turbid or contains particles.)	+ (denotes solubility at the given condition, as determined by UV absorbance being less than 0.1 AU at 340 nm and the sample being clear when manually inspected.)	+ (denotes solubility at the given condition, as determined by UV absorbance being less than 0.1 AU at 340 nm and the sample being clear when manually inspected.)	+ (denotes solubility at the given condition, as determined by UV absorbance being less than 0.1 AU at 340 nm and the sample being clear when manually inspected.)	+ (denotes solubility at the given condition, as determined by UV absorbance being less than 0.1 AU at 340 nm and the sample being clear when manually inspected.)	< 100	96.3
CC[C@H](C)[C@@H]1NC(=O)[C@@H](NC(=O)[C@H](Cc2ccc(O)cc2)NC(=O)[C@H](CCC(=O)O)NC(=O)[C@H](CO)NC(=O)CNC(=O)[C@H](CCC(=O)O)NC(=O)CCCCCCCCCCCCCCC(=O)O)CSSC[C@@H](C(=O)N(C)CC(=O)N[C@@H](CCC(=O)O)C(N)=O)NC(=O)[C@H](CCCNC(=N)N)NC(=O)[C@H](Cc2c[nH]cn2)NC(=O)[C@H](CCC(=O)O)NC(=O)CNC(=O)[C@H](Cc2c[nH]c3ccccc23)NC(=O)[C@H](CC(=O)O)NC(=O)[C@H](CCC(N)=O)NC(=O)[C@H](Cc2cn(C)c3ccccc23)NC1=O [Compound 107] ({C16 diacid}-EGSEYCI[Trp(1-Me)]QDWGEHRC[Sar]E-NH2; disulfide 6-16)	− (denotes lack of solubility at the given condition, as UV absorbance at 340 nm exceeds 0.1 AU and/or it is visibly turbid or contains particles.)	− (denotes lack of solubility at the given condition, as UV absorbance at 340 nm exceeds 0.1 AU and/or it is visibly turbid or contains particles.)	+ (denotes solubility at the given condition, as determined by UV absorbance being less than 0.1 AU at 340 nm and the sample being clear when manually inspected.)	+ (denotes solubility at the given condition, as determined by UV absorbance being less than 0.1 AU at 340 nm and the sample being clear when manually inspected.)	+ (denotes solubility at the given condition, as determined by UV absorbance being less than 0.1 AU at 340 nm and the sample being clear when manually inspected.)	< 100	20.1
CC[C@H](C)[C@@H]1NC(=O)[C@@H](NC(=O)[C@H](Cc2ccccc2)NC(=O)[C@H](CCC(=O)O)NC(=O)[C@H](CO)NC(C)=O)CSSC[C@@H](C(=O)N(C)CC(=O)N[C@@H](CCC(=O)O)C(=O)NCC(=O)N[C@@H](CCC(=O)O)C(=O)N[C@@H](CO)C(=O)N[C@@H](CCC(=O)O)C(=O)N[C@@H](CO)C(=O)N[C@@H](CCCCNC(=O)CC[C@H](NC(=O)CNC(=O)CC[C@H](NC(=O)CCCCCCCCCCCCCCCCC(=O)O)C(=O)O)C(=O)O)C(N)=O)NC(=O)[C@H](CCCNC(=N)N)NC(=O)[C@H](Cc2c[nH]cn2)NC(=O)[C@H](CCC(=O)O)NC(=O)CNC(=O)[C@H](Cc2c[nH]c3ccccc23)NC(=O)[C@H](CC(=O)O)NC(=O)[C@H](CCC(N)=O)NC(=O)[C@H](Cc2cn(C)c3ccccc23)NC1=O [Compound 139] (Ac-SEFCI[Trp(1-Me)]QDWGEHRC[Sar]EGESESK([γGlu-Gly-γGlu-C18 diacid])-NH2; disulfide 4-14)	–	–	–	–	–	< 100	82
CC[C@H](C)[C@@H]1NC(=O)[C@@H](NC(=O)[C@H](Cc2ccccc2)NC(=O)[C@H](CCC(=O)O)NC(=O)[C@H](CO)NC(C)=O)CSSC[C@@H](C(=O)N(C)CC(=O)N[C@@H](CCC(=O)O)C(=O)NCC(=O)N[C@@H](CCC(=O)O)C(=O)NCCOCCOCC(=O)N[C@@H](CCC(=O)O)C(=O)N[C@@H](CO)C(=O)N[C@@H](CCCCNC(=O)CC[C@H](NC(=O)CNC(=O)CC[C@H](NC(=O)CCCCCCCCCCCCCCCCC(=O)O)C(=O)O)C(=O)O)C(N)=O)NC(=O)[C@H](CCCNC(=N)N)NC(=O)[C@H](Cc2c[nH]cn2)NC(=O)[C@H](CCC(=O)O)NC(=O)CNC(=O)[C@H](Cc2c[nH]c3ccccc23)NC(=O)[C@H](CC(=O)O)NC(=O)[C@H](CCC(N)=O)NC(=O)[C@H](Cc2cn(C)c3ccccc23)NC1=O [Compound 140] (Ac-SEFCI[Trp(1-Me)]QDWGEHRC[Sar]EGE[AEEA]ESK([γGlu-Gly-γGlu-C18 diacid])-NH2; disulfide 4-14)	–	–	–	–	–	< 100	100
CC[C@H](C)[C@@H]1NC(=O)[C@@H](NC(=O)[C@H](Cc2ccccc2)NC(=O)[C@H](CCC(=O)O)NC(=O)[C@H](CO)NC(C)=O)CSSC[C@@H](C(=O)N(C)CC(=O)N[C@@H](CCC(=O)O)C(=O)NCC(=O)N[C@@H](CCC(=O)O)C(=O)N[C@@H](CO)C(=O)N[C@@H](CCC(=O)O)C(=O)N[C@@H](CO)C(=O)N[C@@H](CCCCNC(=O)CC[C@H](NC(=O)CCCCCCCCCCCCCCCCC(=O)O)C(=O)O)C(N)=O)NC(=O)[C@H](CCCNC(=N)N)NC(=O)[C@H](Cc2c[nH]cn2)NC(=O)[C@H](CCC(=O)O)NC(=O)CNC(=O)[C@H](Cc2c[nH]c3ccccc23)NC(=O)[C@H](CC(=O)O)NC(=O)[C@H](CCC(N)=O)NC(=O)[C@H](Cc2cn(C)c3ccccc23)NC1=O [Compound 141] (Ac-SEFCI[Trp(1-Me)]QDWGEHRC[Sar]EGESESK([γGlu-C18 diacid])-NH2; disulfide 4-14)	–	–	–	–	–	< 100	145
CC[C@H](C)[C@@H]1NC(=O)[C@@H](NC(=O)[C@H](Cc2ccccc2)NC(=O)[C@H](CCC(=O)O)NC(=O)[C@H](CO)NC(C)=O)CSCC[C@@H](C(=O)N(C)CC(=O)N[C@@H](CCC(=O)O)C(=O)NCC(=O)N[C@@H](CCC(=O)O)C(=O)NCCOCCOCC(=O)NCCOCCOCC(=O)N[C@@H](CCCCNC(=O)CC[C@H](NC(=O)CNC(=O)CC[C@H](NC(=O)CCCCCCCCCCCCCCCCC(=O)O)C(=O)O)C(=O)O)C(N)=O)NC(=O)[C@H](CCCNC(=N)N)NC(=O)[C@H](Cc2c[nH]cn2)NC(=O)[C@H](CCC(=O)O)NC(=O)CNC(=O)[C@H](Cc2c[nH]c3ccccc23)NC(=O)[C@H](CC(=O)O)NC(=O)[C@H](CCC(N)=O)NC(=O)[C@H](Cc2cn(C)c3ccccc23)NC1=O [Compound 146, Ac-SEFA(1)I[1-Me-Trp]QDWGEHRhC(1)[Sar]EGE[Peg3][Peg3]-K([17-carboxy-heptadecanoyl][γGlu]G[γGlu])-NH2] (Ac-SEFCI[Trp(1-Me)]QDWGEHR[Abu(4-yl)][Sar]EGE[AEEA][AEEA]K([γGlu-Gly-γGlu-C18 diacid])-NH2; thioether 4-14)	–	–	–	–	–	< 100	117
